Experimental data taken from patent EP4692079A1, “CYP11A1 INHIBITOR AND USE THEREOF” (priority 2023, dated 2024).
Where two headings read alike, the source gives them in different places.

Columns and labels:
[1] = system: testosterone level in NCI-H295R cells; test: cells; assay type: cell-based; settings: Homo sapiens, NCI-H295R, 72 h; for IC50: read-out: Testosterone level in H295R (Elisa) IC50 nM
Description: The purpose of the experimental study was intended to detect the testosterone level in the NCI-H295R cells by adopting the Enzyme linked immunosorbent assay (ELISA), so as to evaluate the inhibitory effects of the compounds on the testosterone level in the NCI-H295R cells.
The H295R cells were purchased from ATCC, the cell complete medium contained DMEM: F12+ 10% FBS +0.00625 mg/ml insulin +0.00625 mg/ml transferrin+6.25 ng/ml selenium +1.25 mg/ml BSA+0.00535 mg/ml linoleic acid, and the cells were cultured in a 37°C, 5% CO2 incubator. The cells in the exponential growth phase were collected, and cultured in a cytokine-free medium (phenol red 1640-free +1% PS+10% css FBS+1.25 mg/ml BSA +0.00625 mg/ml insulin + 0.00625 mg/ml transferrin+6.25 ng/ml selenium+0.00535 mg/ml linoleic acid) for three days. The cells in the exponential growth phase were collected on the third day. The cell suspension was adjusted with a cytokine-free medium to a corresponding concentration and plated at 60000 cells/well, with the volume being 90 µL/well. Subsequently, 10 µL of the compounds at different concentrations was added and the plate was incubated in a CO2 incubator for three days. After the incubation was completed, according to the operation instructions for testosterone Elisa kit (Beyotime, PT872), 50 µL of the cell culture supernatant was collected from each well and centrifuged at 500 g for 5 min at room temperature and then the resulting supernatant was collected. The samples were added to the corresponding wells at 25 µl/well, and then formulated horseradish peroxidase labelled testosterone was added at 75 µl/well. The mixture was fully mixed for 10 seconds. The reaction wells were sealed with a plate-sealing film (white) and the mixture was incubated at room temperature in the dark for 120 min. The plate was washed three times with a volume of 300 µl per well, and then placed onto thick absorbent paper and dried. Chromogenic reagent TMB solution was added at 100 µl/well. The reaction wells were sealed with a plate-sealing film (white) and the mixture was incubated at room temperature in the dark for 15-20 min. Subsequently, a termination solution was added at 50 µl/well, and after the mixture was fully mixed, the absorbance value OD450 was immediately measured. The absorbance readings were processed using Graphpad Prim 8.0 software and S-shaped concentration curves were plotted and the IC50 values were calculated using a four-parameter non-linear regression model.

[2] = system: pregnenolone level in NCI-H295R cells; test: cells; assay type: cell-based; settings: Homo sapiens, 72 h; for IC50: read-out: Pregnenolone level in H295R (Elisa) IC50 nM; for inhibition at 0.1 µM: read-out: Pregnenolone level in H295R (Elisa) inh.% 100 nM; for inhibition at 1 µM: read-out: Pregnenolone level in H295R (Elisa) inh.% 1000 nM
Description: 2. The purpose of the experimental study was intended to detect the pregnenolone level in the NCI-H295R cells by adopting the Enzyme linked immunosorbent assay (ELISA), so as to evaluate the inhibitory effects of the compounds on the pregnenolone level in the NCI-H295R cells.
The H295R cells were purchased from ATCC (CRL-2128), the cell complete medium contained DMEM: F12+ 10% FBS +0.00625 mg/ml insulin+0.00625 mg/mL transferrin+6.25 ng/mL selenium+1.25 mg/mL BSA+0.00535 mg/mL linoleic acid, and the cells were cultured in a 37°C, 5% CO2 incubator. The cells in the exponential growth phase were collected, and cultured in a cytokine-free medium (phenol red 1640-free +1% PS+10% css FBS+1.25 mg/mL BSA +0.00625 mg/mL insulin+0.00625 mg/mL transferrin+6.25 ng/mL selenium+0.00535 mg/mL linoleic acid) for three days. The cells in the exponential growth phase were collected on the third day. The cell suspension was adjusted with a cytokine-free medium to a corresponding concentration and plated at 60000 cells/well, with the volume being 90 µL/well. Subsequently, 10 µL of the compounds at different concentrations was added and the plate was incubated in a CO2 incubator for three days. After the incubation was completed, the cell culture supernatant was collected and centrifuged at 2°C-8°C at 800×g for 10 min. The resulting supernatant was collected. Determination was carried out according to the operation instructions for pregnenolone Elisa kit (Antibodies-A73791), and the OD450 signal was read.
2.1 Standard curve plotting. The standard concentration was taken as the abscissa and the OD450 value as the ordinate, the coordinate points of various standards were connected with a smooth line and a curve was fitted according to the four parameter logistic (4-PL) method.
2.2 Sample quantification: The corresponding concentration (CONC) of testosterone/pregnenolone in the sample was calculated using the absorbance value of the sample and the standard curve. According to formula (1), the inhibition rate of the compound at various concentrations was calculated, and S-shaped concentration curves were plotted and the IC50 values (i.e., concentration of the compound at which the inhibition rate was 50%) were calculated using a three parameter non-linear regression model in Graphpad Prim 8.0 software. CONC cpd was the concentration of the treated group, and CONC ctrl was the average concentration value of the solvent control group. Inhibition rate% = 100%−CONCcpd /CONCctrl × 100% [formula] Table 3 Inhibitory effects of compounds on pregnenolone level in NCI-H295R cells

[3] = Pharmacokinetic test in mice; assay type: in vivo; settings: mouse, male ICR mice, plasma; for Vd: read-out: Vdss
Description: 4.1. Experimental animals: Male ICR mice, 20-25 g, 6 mice/compound, were purchased from Chengdu Dossy Experimental Animals Co., Ltd.
4.2 Experimental design: on the day of the experiment, the ICR mice were randomly grouped according to their body weights. […] Table 6 Administration information
Before and after administration, 0.06 mL of blood was taken from the orbit under isoflurane anaesthesia and placed in an EDTAK2 centrifuge tube. The tube was centrifuged at 5000 rpm at 4°C for 10 min, and plasma was collected. […] Before analysis and detection, all samples were stored at -80°C, and the samples were quantitatively analysed by LC-MS/MS.

[4] = Pharmacokinetic test in rats; assay type: in vivo; settings: rat, male SD rats, plasma; for Vd: read-out: Vdss
Description: 3.1 Experimental animals: Male SD rats (about 220 g, 6-8 weeks old, 6 rats/compound) were purchased from Chengdu Dossy Experimental Animals Co., Ltd.
3.2 Experimental design: On the day of the experiment, the SD rats were randomly grouped by body weight. […] Table 4 Administration information
Before and after the administration, 0.1 ml of blood was taken from the orbit of the animals under isoflurane anaesthesia and placed in an EDTAK2 centrifuge tube. The blood was centrifuged at 5000 rpm and 4°C for 10 min to collect plasma. […] Before analysis and detection, all samples were stored at -80°C. Table 5 Pharmacokinetic parameters of test compounds in plasma of rats

[5] = read-out: Testosterone level in H295R (Elisa) inh.% 100 nM, 100 nM compound, NCI-H295R cells, three days incubation
[6] = read-out: Testosterone level in H295R (Elisa) inh.% 1000 nM, 1000 nM compound, NCI-H295R cells, three days incubation
[7] = read-out: Testosterone level in H295R (Elisa) inh.% 100 nM
[8] = read-out: Testosterone level in H295R (Elisa) inh.% 1000 nM
[9] = po, intragastric administration (10 mg/kg)
[10] = intravenous administration (2.5 mg/kg)

| Compound | inhibition at 0.1 µM [1, 5] [%] | inhibition at 1 µM [1, 6] [%] | IC50 [2] [nM] | inhibition at 0.1 µM [2] [%] | inhibition at 1 µM [2] [%] | IC50 [1] [nM] | inhibition at 0.1 µM [1, 7] [%] | inhibition at 1 µM [1, 8] [%] | AUC(0-t) [3, 9] [ng·h/mL] | half-life [3, 9] [h] | AUC(0-t) [3, 10] [ng·h/mL] | clearance [3, 10] [mL/min/kg] | half-life [3, 10] [h] | Vd [3, 10] [L/kg] | AUC(0-t) [4, 9] [ng·h/mL] | half-life [4, 9] [h] | AUC(0-t) [4, 10] [ng·h/mL] | clearance [4, 10] [mL/min/kg] | half-life [4, 10] [h] | Vd [4, 10] [L/kg] |
| --- | --- | --- | --- | --- | --- | --- | --- | --- | --- | --- | --- | --- | --- | --- | --- | --- | --- | --- | --- | --- |
| [2H]C([2H])([2H])C(=O)N[C@H]1CC[C@H](/C=C/c2coc(CN3Cc4ccc(C(F)(F)F)cc4C3)cc2=O)CC1 [Compound 80] | 71 | 84 | 190 | 38.1 | 59.1 |  |  |  |  |  |  |  |  |  |  |  |  |  |  |  |
| O=C(N[C@H]1CC[C@H](/C=C/c2coc(CN3Cc4ccc(C(F)(F)F)cc4C3)cc2=O)CC1)[C@H]1CC1(F)F [Compound 90] |  |  | 119 | 43.4 | 67 | 73 | 80 | 85 | 40600 | 6.36 | 10600 | 3.67 | 6.73 | 1.73 |  |  |  |  |  |  |
| O=C(N[C@H]1CC[C@H](COc2coc(CN3Cc4ccc(C(F)(F)F)cc4C3)cc2=O)CC1)C1CC1 [Compound 15] | 51 | 84.2 | 382 |  |  | 13 |  |  | 25400 | 3.19 | 6700 | 6.21 | 3.54 | 1.61 |  |  |  |  |  |  |
| O=C(N[C@H]1CC[C@H](CCc2coc(CN3Cc4ccc(C(F)(F)F)cc4C3)cc2=O)CC1)C1CC(F)(F)C1 [Compound 95] | 57 | 81 |  | 50 | 66 |  |  |  |  |  |  |  |  |  |  |  |  |  |  |  |
| CS(=O)(=O)N1CC(OC(=O)N[C@H]2CC[C@H](COc3coc(CN4Cc5ccc(C(F)(F)F)cc5C4)cc3=O)CC2)C1 [Compound 64] |  |  |  |  |  |  | 73 | 75 |  |  |  |  |  |  | 10100 | 2.92 | 3440 | 12.1 | 2.65 | 2.09 |
| O=C(OC1CC1)N1CCC(COc2coc(CN3Cc4ccc(OC5CC5)cc4C3)cc2=O)CC1 [Compound 27] | 78 | 68 |  | 65.5 | 67.5 | 50.1 |  |  |  |  |  |  |  |  |  |  |  |  |  |  |
| O=C(N[C@H]1CC[C@@H](COc2coc(CN3Cc4ccc(C(F)(F)F)cc4C3)cc2=O)CC1)C1COC1 [Compound 54] |  |  |  |  |  |  | 53.2 | 72.2 | 28100 | 2.97 | 5870 | 7.19 | 2.98 | 1.17 |  |  |  |  |  |  |
| O=C(N[C@H]1CC[C@H](COc2coc(CN3Cc4ccc(C(F)(F)F)cc4C3)cc2=O)CC1)C1COC1 [Compound 63] |  |  |  |  |  |  | 64 | 75 |  |  |  |  |  |  | 19100 | 2.18 |  |  |  |  |
| Cc1nc(C(=O)N[C@H]2CC[C@H](/C=C/c3coc(CN4Cc5ccc(C(F)(F)F)cc5C4)cc3=O)CC2)co1 [Compound 84] |  |  | 121 |  |  |  |  |  |  |  |  |  |  |  |  |  |  |  |  |  |
| [2H]C([2H])([2H])C(=O)N[C@H]1CC[C@H](COc2coc(CN3Cc4ccc(C(F)(F)F)cc4C3)cc2=O)CC1 [Compound 33] |  |  |  |  |  | 68 |  |  | 8430 | 2.45 | 2090 | 19.9 | 0.908 | 1.19 | 19600 | 2.04 |  |  |  |  |
| C=C1CC(C(=O)N[C@H]2CC[C@H](/C=C/c3coc(CN4Cc5ccc(C(F)(F)F)cc5C4)cc3=O)CC2)C1 [Compound 116] | 60 | 66 |  | 48 | 75 |  |  |  |  |  |  |  |  |  |  |  |  |  |  |  |
| O=C(CC1CC1)N1CCC(/C=C/c2coc(CN3Cc4ccc(C(F)(F)F)cc4C3)cc2=O)CC1 [Compound 52] |  |  |  |  |  | 98.2 | 55.8 | 74.9 |  |  |  |  |  |  | 10500 | 2.21 | 3300 | 12.3 | 1.37 | 1.39 |
| Cn1cc(C(=O)N[C@H]2CC[C@H](COc3coc(CN4Cc5ccc(C(F)(F)F)cc5C4)cc3=O)CC2)cn1 [Compound 35] |  |  |  |  |  |  | 72.8 | 75.5 | 24200 | 2.85 | 12500 | 3.34 | 2.68 | 0.557 | 18300 | 2.84 | 9100 | 4.66 | 2.71 | 0.788 |
| COC1CN(CC(=O)N2CCC(/C=C/c3coc(CN4Cc5ccc(C(F)(F)F)cc5C4)cc3=O)CC2)C1 [Compound 18] | 80.8 | 92.5 |  | 40.7 | 50.5 | 100 |  |  |  |  |  |  |  |  |  |  |  |  |  |  |
| O=c1cc(CN2Cc3ccc(C(F)(F)F)cc3C2)occ1/C=C/[C@H]1CC[C@H](NC(=O)[C@H]2C[C@H](F)C2)CC1 [Compound 101] |  |  |  |  |  |  | 73 | 71 |  |  |  |  |  |  | 11600 | 3.59 | 5640 | 7.45 | 2.96 | 1.47 |
